Test results from US20260256923A1, “NEW RECRUITMENT ELEMENT OF UBIQUITIN LIGASE AND USE THEREOF” (SHENZHEN LINGGENE BIOTECH CO., LTD., priority 2023, published 2026).

What was measured:
STAT3 [1] = target: T1, STAT3 (Homo sapiens, UniProt P40763); assay: STAT3 protein degradation in HOS osteosarcoma cells, western blot; assay type: cell-based; set-up: endogenous in cells; settings: 500 nM, 6 h
Description: (§1) HOS osteosarcoma cells were incubated with 500 nM double-stranded transcription factor decoy oligonucleotide S3, AS1411, the first PROTAC product 1411-S3-1, the second PROTAC product 1411-S3-2, or AS1411+double-stranded transcription factor decoy oligonucleotide S3. After 6 h, cell samples were collected for protein extraction and subsequent western blot assay.

STAT3 [2] = target: T1, STAT3; assay: STAT3 protein degradation in HeLa cells, western blot; assay type: cell-based; set-up: endogenous in cells; host or cells: HeLa; settings: 500 nM, 6 h
Description: HeLa cells were incubated with 500 nM said first PROTAC product 1411-S3-1 or second PROTAC product 1411-S3-2, and corresponding cell samples were collected at time gradients of 0 h, 2 h, 6 h, 12 h, 18 h, and 24 h for protein extraction and subsequent western blot assay.
HeLa cells were incubated with the first PROTAC product 1411-S3-1 or the second PROTAC product 1411-S3-2 at concentrations of 0 nM, 100 nM, 200 nM, 500 nM, and 1000 nM. After 6 h, cell samples were collected for protein extraction and subsequent western blot assay. […] The half-maximal degradation concentrations (DC50) of the first PROTAC product 1411-S3-1 and the second PROTAC product 1411-S3-2 against STAT3 at the protein level were 262.5 nM and 136.3 nM, respectively, as shown in FIG. 19.
as §1, with “HeLa” for “HOS osteosarcoma”
HeLa cells were incubated with 500 nM said first PROTAC product 1411-S3-1 or second PROTAC product 1411-S3-2, and proteasome inhibitor MG132 was added. After 6 h, cell samples were collected for protein extraction and subsequent western blot assay. […]

T1 sequence (P40763 whole entry): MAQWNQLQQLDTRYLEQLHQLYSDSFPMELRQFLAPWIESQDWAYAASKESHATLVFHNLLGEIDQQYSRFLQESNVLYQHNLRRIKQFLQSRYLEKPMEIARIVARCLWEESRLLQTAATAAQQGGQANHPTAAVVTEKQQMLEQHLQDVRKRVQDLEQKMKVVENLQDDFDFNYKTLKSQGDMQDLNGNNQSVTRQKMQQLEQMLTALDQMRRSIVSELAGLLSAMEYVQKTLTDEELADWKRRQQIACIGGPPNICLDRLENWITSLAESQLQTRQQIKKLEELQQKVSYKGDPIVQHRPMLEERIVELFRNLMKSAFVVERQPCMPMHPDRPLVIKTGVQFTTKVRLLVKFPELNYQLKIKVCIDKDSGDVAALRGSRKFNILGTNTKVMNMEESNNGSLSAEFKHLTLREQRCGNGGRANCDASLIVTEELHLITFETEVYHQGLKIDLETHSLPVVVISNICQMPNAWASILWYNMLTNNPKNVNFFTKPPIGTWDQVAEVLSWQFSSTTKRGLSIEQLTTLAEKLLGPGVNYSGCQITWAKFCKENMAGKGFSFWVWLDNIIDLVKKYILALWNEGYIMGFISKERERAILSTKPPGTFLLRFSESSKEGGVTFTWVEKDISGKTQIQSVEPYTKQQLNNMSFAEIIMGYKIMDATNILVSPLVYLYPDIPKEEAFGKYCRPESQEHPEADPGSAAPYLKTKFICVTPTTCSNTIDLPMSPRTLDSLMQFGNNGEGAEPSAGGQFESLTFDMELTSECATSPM

With “AS1411: DNA aptamer, GRO binding NCL, SEQ ID NO: 1: 5′-GGTGGTGGTGGTTGTGGTGGTGGTGG-3′” the “protein level of STAT3” value (STAT3 [1]) was “only the first PROTAC product 1411-S3-1 and the second PROTAC product 1411-S3-2 can reduce the protein level of transcription factor STAT3” and the “protein level of STAT3” value (STAT3 [2]) was “only the first PROTAC product 1411-S3-1 and the second PROTAC product 1411-S3-2 can reduce the protein level of transcription factor STAT3”.
